Legend:
[1] = tested on: leukotrienes, prostaglandin E2, prostaglandin F2; details: cited from earlier work
[2] = tested on: photoreceptors; assay: Paraquat-induced photoreceptor apoptosis in vitro; assay type: cell-based, Wistar albino rats
Description: Tyramide signal amplification (TSA)-FISH PerkinElmer, Boston, Mass., USA.); secondary antibodies, monoclonal antibodies to-Bax (sc-7480), Bcl-2 (sc-7382), rodopsine RET-P1 (sc-57433) (Santa Cruz Biotechnology, Inc.—USA), PhA, Docosahexaenoic acid, Paraquat Dichloride, (Sigma-Alldrich). Solvents and reactors had HPLC and analytic grade.
Purified cultures of neurons from Wistar albino rats were prepared according to Politi et al., (1966) and treated in a poli-ornithine medium as in Adler-R (1982). On the first day of culture, equal concentrations of DHA (9 mM) were added to neuron cultures, with 7 different concentrations of PhA ([…]), usually found in marine origin oils rich in DHA, and 2 controls without DHA, with or without Paraquat. On the third day of culture, Paraquat was added, incubating it for 24 h before fixing it for an hour with paraformaldehyde in a phosphate buffered saline (0.9% NaCl in 0.01 M NaH2PO4 [pH 7.4], following 15 minutes with Triton X-100 (0.1%). In the apoptosis, the expression of Bax and Bcl-2 was determined and quantified according to the method Rotstein-N P et al. (2003). For the cytochemical studies, 10 fields/samples were randomly quantified, where results represent the of 3 samples/plate mean for each concentration of DHA with PhA.

[3] = tested on: retinas from rats; assay: MNU-induced retinal apoptosis in vivo
Description: The same materials and immunohystochemical and quantification methods as in Experiment A were used. Instead of using Paraquat for inducing apoptosis, N-Nitroso-N-methylurea (MNU) (Sigma-Alldrich) was used. Instead of analysing cultures in vitro, as in Experiment A, retins from sacrificed Wistar albino rats were analysed. For that purpose, 8 rats S-D with 42 days of age were selected and fed for 4 weeks with a standard basal diet. Each animal was fed in a different way: one rat was on a standard on control diet, while for the other 7 rats this diet was modified with DHA at 15%, having different concentrations of PhA as in Experiment A: 0/4/20/100/500/2500/12500 μgPhA/g of oil. After these 4 weeks, they were injected a single intraperitoneal injection of MNU (75 mg/kg body weight). All rats were on the same diet for 6 days, being sacrificed at the 7th day, after having fast for 24 hours, when the extraction of retinas was carried out, following the fixation and immunohystochemical processes as in Experiment A. For the cytochemical studies, 10 fields/samples were randomly quantified, where results represent the 10 eye/sample mean.

[4] = toxic at doses as low as; cited from earlier work
[5] = DHA oils <5 μg/g of PhA compared with larger concentrations

Compound | inhibition of the synthesis of leukotrienes [1] | reduction of prostaglandin E2 [1] | reduction of prostaglandin F2 [1] | anti-apoptotic activity in photoreceptors ([2]; DHA 9 mM with 0 and 4 μg/g of PhA, compared with ≧20 and ≧100 μg/g) | inhibitory activity of apoptosis (FIG. 1) [2, 5] | oxidative stress produced (FIG. 1) [2, 5] | anti-apoptotic activity in photoreceptors ([2]; DHA with ≧20 μg/g and ≧100 μg/g of PhA) | activity to inhibit apoptosis of photoreceptors ([2]; PhA concentration 2500 μg/g) | apoptosis of photoreceptors ([2]; PhA concentrations higher than 2500 μg/g) | oxidative stress (Bcl-2/Bax index) ([2]; PhA ≦20 μg/g compared with ≧100 μg/g) | ratio Bcl-2/Bax ([3]; 20 μg/g of PhA versus rats fed with <5 μg/g) | neutralisation of the inhibitor effect of the apoptosis ([3]; PhA up to 12500 μgPhA/g of oil) | anti-apoptotic activity in photoreceptors ([3]; diet with DHA at 15%, PhA between 0 and 20 μg/g, MNU 75 mg/kg i.p.) | physiological activity as an inhibitor of apoptosis (FIG. 2) ([3]; oral consumption of DHA <5 μg/g of PhA) | anti-apoptotic activity and markers Bax and Bcl-2 with regards to DHA without PhA added ([3]; rats fed with DHA <5 μg/g) | toxic dose [4]
CC/C=C\C/C=C\C/C=C\C/C=C\C/C=C\C/C=C\CCC(=O)O [DHA] | 76% | 40% | 81% | notably higher | greater inhibitory activity of apoptosis | less | significantly reduced | neutralised | apoptosis of photoreceptors is induced | significantly less oxidative stress | significantly lower | no neutralisation | greater anti-apoptotic activity | greater physiological activity | do not reveal alterations | 
CC(C)CCCC(C)CCCC(C)CCCC(C)CC(=O)O (stereo not shown) [PhA, phytanic acid] |  |  |  |  |  |  |  |  |  |  |  |  |  |  |  | 0.1 μmol/mg fat

Reference: patent US9062275B2, “Compositions rich in omega-3 fatty acids with a low content in phytanic acid” (NATAC PHARMA, S.L., priority 2009, dated 2015)
